Assay results taken from PubChem BioAssay (NCI).
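Values below derive from 48-hour exposures of cells grown in 96-well plates, with endpoints linearly interpolated between the two concentrations bracketing the appropriate inhibition level. GI50 marks 50% less growth. TGI denotes the concentration required for complete inhibition of growth.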

Legend:
Experiment in all cases: NCI-60 cell line screen, 48 h
786-0 renal = system: 786-0 renal
A498 renal = system: A498 renal
A549 NSCLC = system: A549 NSCLC
ACHN renal = system: ACHN renal
BT-549 breast = system: BT-549 breast
CAKI-1 renal = system: CAKI-1 renal
CCRF-CEM leukemia = system: CCRF-CEM leukemia
COLO 205 colon = system: COLO 205 colon
DU-145 prostate = system: DU-145 prostate
EKVX NSCLC = system: EKVX NSCLC
HCC-2998 colon = system: HCC-2998 colon
HCT-116 colon = system: HCT-116 colon
HCT-15 colon = system: HCT-15 colon
HL-60(TB) leukemia = system: HL-60(TB) leukemia
HOP-62 NSCLC = system: HOP-62 NSCLC
HOP-92 NSCLC = system: HOP-92 NSCLC
HS 578T breast = system: HS 578T breast
HT29 colon = system: HT29 colon
IGROV1 ovarian = system: IGROV1 ovarian
K-562 leukemia = system: K-562 leukemia
KM12 colon = system: KM12 colon
LOX IMVI melanoma = system: LOX IMVI melanoma
M14 melanoma = system: M14 melanoma
MALME-3M melanoma = system: MALME-3M melanoma
MCF7 breast = system: MCF7 breast
MDA-MB-231 breast = system: MDA-MB-231 breast
MDA-MB-435 = system: MDA-MB-435
MOLT-4 leukemia = system: MOLT-4 leukemia
NCI-H226 lung = system: NCI-H226 lung
NCI-H23 lung = system: NCI-H23 lung
NCI-H460 lung = system: NCI-H460 lung
NCI-H522 lung = system: NCI-H522 lung
NCI/ADR-RES ovarian = system: NCI/ADR-RES ovarian
OVCAR-4 ovarian = system: OVCAR-4 ovarian
OVCAR-5 ovarian = system: OVCAR-5 ovarian
OVCAR-8 ovarian = system: OVCAR-8 ovarian
PC-3 prostate = system: PC-3 prostate
RPMI-8226 leukemia = system: RPMI-8226 leukemia
RXF 393 renal = system: RXF 393 renal
SF-268 CNS = system: SF-268 CNS
SF-295 CNS = system: SF-295 CNS
SF-539 CNS = system: SF-539 CNS
SK-MEL-2 melanoma = system: SK-MEL-2 melanoma
SK-MEL-28 melanoma = system: SK-MEL-28 melanoma
SK-MEL-5 melanoma = system: SK-MEL-5 melanoma
SK-OV-3 ovarian = system: SK-OV-3 ovarian
SN12C renal = system: SN12C renal
SNB-19 CNS = system: SNB-19 CNS
SNB-75 CNS = system: SNB-75 CNS
SR leukemia = system: SR leukemia
SW-620 colon = system: SW-620 colon
T-47D breast = system: T-47D breast
TK-10 renal = system: TK-10 renal
U251 CNS = system: U251 CNS
UACC-257 melanoma = system: UACC-257 melanoma
UACC-62 melanoma = system: UACC-62 melanoma
UO-31 renal = system: UO-31 renal

With `O=C(NNc1nc2cc(F)c(F)cc2n2c(CN3CC4CNCC4C3)ccc12)c1cnccn1` (centres undefined) the GI50 (786-0 renal) was 0.609 µM, the TGI (786-0 renal) was 12.4 µM and the GI50 (A498 renal) was 0.522 µM. It also gave a TGI (A498 renal) of 4.22 µM, a GI50 (A549 NSCLC) of 0.851 µM and a TGI (A549 NSCLC) of 10.6 µM. It also gave a GI50 (ACHN renal) of 0.429 µM, a TGI (ACHN renal) of 7.82 µM and a GI50 (BT-549 breast) of 2.42 µM. For the same compound, the TGI (BT-549 breast) was 13.8 µM, the GI50 (CAKI-1 renal) was 0.415 µM and the TGI (CAKI-1 renal) was 9.69 µM. It also gave a GI50 (CCRF-CEM leukemia) of 0.706 µM, a TGI (CCRF-CEM leukemia) of 27.5 µM and a GI50 (COLO 205 colon) of 0.874 µM. For the same compound, the TGI (COLO 205 colon) was 13.8 µM, the GI50 (DU-145 prostate) was 1.3 µM and the TGI (DU-145 prostate) was 11.8 µM. The GI50 (EKVX NSCLC) was 0.732 µM, the TGI (EKVX NSCLC) was 13.8 µM and the GI50 (HCC-2998 colon) was 2.74 µM. For the same compound, the TGI (HCC-2998 colon) was 16.5 µM, the GI50 (HCT-116 colon) was 0.588 µM and the TGI (HCT-116 colon) was 15.8 µM. For the same compound, the GI50 (HCT-15 colon) was 0.363 µM, the TGI (HCT-15 colon) was 16.2 µM and the GI50 (HL-60(TB) leukemia) was 1.15 µM. It also gave a TGI (HL-60(TB) leukemia) of 4.36 µM, a GI50 (HOP-62 NSCLC) of 0.459 µM and a TGI (HOP-62 NSCLC) of 5.23 µM. It also gave a GI50 (HOP-92 NSCLC) of 3.01 µM, a TGI (HOP-92 NSCLC) of 17.4 µM and a GI50 (HS 578T breast) of 3.33 µM. For the same compound, the TGI (HS 578T breast) was 20.6 µM, the GI50 (HT29 colon) was 0.726 µM and the TGI (HT29 colon) was 15.2 µM. It also gave a GI50 (IGROV1 ovarian) of 0.904 µM, a TGI (IGROV1 ovarian) of 10.8 µM and a GI50 (K-562 leukemia) of 0.785 µM. For the same compound, the TGI (K-562 leukemia) was > 100 µM, the GI50 (KM12 colon) was 0.74 µM and the TGI (KM12 colon) was 12.7 µM. The GI50 (LOX IMVI melanoma) was 0.608 µM, the TGI (LOX IMVI melanoma) was 6.7 µM and the GI50 (M14 melanoma) was 0.611 µM. For the same compound, the TGI (M14 melanoma) was 12.3 µM, the GI50 (MALME-3M melanoma) was 1.75 µM and the TGI (MALME-3M melanoma) was 9.7 µM. It also gave a GI50 (MCF7 breast) of 1.41 µM, a TGI (MCF7 breast) of 12.3 µM and a GI50 (MDA-MB-231 breast) of 3.65 µM. It also gave a TGI (MDA-MB-231 breast) of 20.6 µM, a GI50 (MDA-MB-435) of 2.53 µM and a TGI (MDA-MB-435) of 16.3 µM. For the same compound, the GI50 (MOLT-4 leukemia) was 0.764 µM, the TGI (MOLT-4 leukemia) was 13.6 µM and the GI50 (NCI-H226 lung) was 1.23 µM. For the same compound, the TGI (NCI-H226 lung) was 14.5 µM, the GI50 (NCI-H23 lung) was 2.47 µM and the TGI (NCI-H23 lung) was 14.3 µM. It also gave a GI50 (NCI-H460 lung) of 0.463 µM, a TGI (NCI-H460 lung) of 4.72 µM and a GI50 (NCI-H522 lung) of 2.34 µM. For the same compound, the TGI (NCI-H522 lung) was 6.26 µM, the GI50 (NCI/ADR-RES ovarian) was 2.6 µM and the TGI (NCI/ADR-RES ovarian) was 14.3 µM. The GI50 (OVCAR-4 ovarian) was 0.995 µM, the TGI (OVCAR-4 ovarian) was 20.6 µM and the GI50 (OVCAR-5 ovarian) was 1.75 µM. For the same compound, the TGI (OVCAR-5 ovarian) was 16.8 µM, the GI50 (OVCAR-8 ovarian) was 0.547 µM and the TGI (OVCAR-8 ovarian) was 7.83 µM. The GI50 (PC-3 prostate) was 1.25 µM, the TGI (PC-3 prostate) was 16.1 µM and the GI50 (RPMI-8226 leukemia) was 1.3 µM. The TGI (RPMI-8226 leukemia) was 11.8 µM, the GI50 (RXF 393 renal) was 1.27 µM and the TGI (RXF 393 renal) was 9.46 µM. It also gave a GI50 (SF-268 CNS) of 0.962 µM, a TGI (SF-268 CNS) of 10.8 µM and a GI50 (SF-295 CNS) of 0.44 µM. For the same compound, the TGI (SF-295 CNS) was 11.2 µM, the GI50 (SF-539 CNS) was 1.07 µM and the TGI (SF-539 CNS) was 4.42 µM. For the same compound, the GI50 (SK-MEL-2 melanoma) was 1.89 µM, the TGI (SK-MEL-2 melanoma) was 11.4 µM and the GI50 (SK-MEL-28 melanoma) was 2.11 µM. The TGI (SK-MEL-28 melanoma) was 14.5 µM, the GI50 (SK-MEL-5 melanoma) was 1.65 µM and the TGI (SK-MEL-5 melanoma) was 4.34 µM. The GI50 (SK-OV-3 ovarian) was 0.811 µM, the TGI (SK-OV-3 ovarian) was 9.06 µM and the GI50 (SN12C renal) was 2.06 µM. For the same compound, the TGI (SN12C renal) was 11.4 µM, the GI50 (SNB-19 CNS) was 2.2 µM and the TGI (SNB-19 CNS) was 18.8 µM. It also gave a GI50 (SNB-75 CNS) of 2.16 µM, a TGI (SNB-75 CNS) of 14.1 µM and a GI50 (SR leukemia) of 0.481 µM. It also gave a TGI (SR leukemia) of 20.5 µM, a GI50 (SW-620 colon) of 1.17 µM and a TGI (SW-620 colon) of 15.2 µM. For the same compound, the GI50 (T-47D breast) was 3.3 µM, the TGI (T-47D breast) was 22.9 µM and the GI50 (TK-10 renal) was 0.455 µM. For the same compound, the TGI (TK-10 renal) was 17 µM, the GI50 (U251 CNS) was 0.741 µM and the TGI (U251 CNS) was 11.2 µM. The GI50 (UACC-257 melanoma) was 2.09 µM, the TGI (UACC-257 melanoma) was 7.13 µM and the GI50 (UACC-62 melanoma) was 1.19 µM. For the same compound, the TGI (UACC-62 melanoma) was 6.28 µM, the GI50 (UO-31 renal) was 0.356 µM and the TGI (UO-31 renal) was 3.24 µM.
